Measurements from patent US20220162610A1, “NOVEL RNA TRANSCRIPT” (PTC Therapeutics, Inc., priority 2020, published 2022).

What was measured:
MDR1 = target: T1, MDR1 (Homo sapiens, UniProt P08183); experiment: MDCK-MDR1 efflux assay; assay type: in vitro ADME; details: 10 μM, MDCK-MDR1 and MDCK-WT monolayers, 1 hour
T1 construct: host or cells: MDCK (Madin-Darby Canine Kidney) cells expressing MDR1
Description: The MDR1 efflux assay was conducted at Absorption System LLC (Exton, Pa.). Briefly, MDCK-MDR1 and MDCK-WT cell monolayers were grown to confluence on collagen-coated, microporous membranes in 12-well assay plates (Thermofisher). Compound solutions (10 μM) in permeability assay buffer (Hanks' balanced salt solution (HBSS), 10 mM HEPES, 15 mM glucose; pH of 7.4) were placed in the donor chamber. The receiver chamber was filled with assay buffer plus 1% BSA. Cell monolayers were dosed on the apical side (A-to-B) or basolateral side (B-to-A) and incubated at 37° C. (5% CO2, 100% relative humidity). Sampling from the donor chambers was performed at 0 and 1 hour; and from the receiver chambers at 1 hour. Each determination was performed in duplicate. The flux of lucifer yellow was also measured post-experimentally for each monolayer to ensure no damage was inflicted to the cell monolayers during the flux period. All samples were assayed by LC-MS/MS using electrospray ionisation. The apparent permeability (Papp) and percent recovery was determined using the following equation: […]
dCr/dt represents the slope of the cumulative receiver concentration versus time in μM/s; Vr is the volume of the receiver compartment (cm3); Vd is the volume of the donor compartment in (cm3); A is the area of the insert (1.13 cm2 for 12-well); C0 is the average measured concentration of the donor chamber at time zero in μM; Net Efflux ratio (ER) is defined as […].

[1] = Unbound brain partition coefficient (Kp,uu) from mouse PK studies; assay type: in vivo; details: FVB (WT littermates of the BACHD colony), brain and plasma (unbound), oral, 10 mg/kg, average over animals of multiple mouse PK studies
Description: Oral pharmacokinetics (PK) of compounds was evaluated in WT littermates from the BACHD colony (FVB background). Mice were treated with test compounds (10 mg/kg) by oral gavage in 0.5% hydroxypropylmethyl cellulose (HPMC) with 0.1% Tween 80. Blood was collected by terminal cardiac puncture at specified time points (3 mice per time point) and centrifuged to generate plasma. Brain tissue was collected at the time of blood collection and homogenized in water. Protein was precipitated from plasma and brain homogenates with acetonitrile, methanol mixture (5:1, v:v) containing an internal standard that is a close analog of the test compounds. The mixture was filtered through an EMD Millipore MultiScreen™ Solvinert Filter Plate (MSRLN04, Millipore, Burlington, Mass.). Calibration standards were prepared in the same matrix and processed with the testing samples. Filtrates were analysed using Acquity ultra performance liquid chromatography (UPLC) system (Waters Corporation) tandem with Xevo TQ-s Spectrometer (Waters Corporation). Samples were injected on to a Waters UPLC Acquity BEH C18 Column (2.1*50 mm, 1.7 μm) maintained at 50° C. The injection volume was 3 μL and the mobile phase flow rate was 0.45 mL/min. The mobile phase consisted of 2 solvents: A) 0.1% formic acid in water and B) 0.1% formic acid in acetonitrile. The initial mobile phase started with 5% solvent B for 0.4 min, which was changed to […] over 0.8 min with linear gradients and then maintained at 95% solvent B for another 0.4 min. The drug concentrations were acquired and processed with MassLynx 4.1 software. PK parameters were estimated using the non-compartment method within Phoenix® WinNonlin® Build 8.1 (Certara USA, Inc., Princeton, N.J.).
The unbound brain partition coefficient (Kp,uu) is defined as the ratio between unbound brain free drug concentration and unbound plasma concentration. It was calculated using the following equation:
Kp,uu=Cbrain×fu,b/(Cplasma*fu,p)
Cbrain and Cplasma represent the compound concentrations in brain and plasma, respectively. fu,b and fu,p are the unbound fraction of each testing article in brain and plasma, respectively. Both fu,b and fu,p were determined in vitro using Pierce Rapid Equilibrium Dialysis (RED) device at Absorption System LLC (Exton, Pa.). Kp,uu was calculated individually for each animal from multiple mouse PK studies and the average values are reported here.

HTT pre-mRNA = experiment: Ampliseq/RNAseq analysis of intron 49 pseudoexon inclusion and HTT expression in different cell types; assay type: cell-based, human; details: for inclusion of intron 49 pseudoexon: HD fibroblasts, SH-SY5Y, TK6, MRC-5 cells

T1 sequence (P08183 whole entry): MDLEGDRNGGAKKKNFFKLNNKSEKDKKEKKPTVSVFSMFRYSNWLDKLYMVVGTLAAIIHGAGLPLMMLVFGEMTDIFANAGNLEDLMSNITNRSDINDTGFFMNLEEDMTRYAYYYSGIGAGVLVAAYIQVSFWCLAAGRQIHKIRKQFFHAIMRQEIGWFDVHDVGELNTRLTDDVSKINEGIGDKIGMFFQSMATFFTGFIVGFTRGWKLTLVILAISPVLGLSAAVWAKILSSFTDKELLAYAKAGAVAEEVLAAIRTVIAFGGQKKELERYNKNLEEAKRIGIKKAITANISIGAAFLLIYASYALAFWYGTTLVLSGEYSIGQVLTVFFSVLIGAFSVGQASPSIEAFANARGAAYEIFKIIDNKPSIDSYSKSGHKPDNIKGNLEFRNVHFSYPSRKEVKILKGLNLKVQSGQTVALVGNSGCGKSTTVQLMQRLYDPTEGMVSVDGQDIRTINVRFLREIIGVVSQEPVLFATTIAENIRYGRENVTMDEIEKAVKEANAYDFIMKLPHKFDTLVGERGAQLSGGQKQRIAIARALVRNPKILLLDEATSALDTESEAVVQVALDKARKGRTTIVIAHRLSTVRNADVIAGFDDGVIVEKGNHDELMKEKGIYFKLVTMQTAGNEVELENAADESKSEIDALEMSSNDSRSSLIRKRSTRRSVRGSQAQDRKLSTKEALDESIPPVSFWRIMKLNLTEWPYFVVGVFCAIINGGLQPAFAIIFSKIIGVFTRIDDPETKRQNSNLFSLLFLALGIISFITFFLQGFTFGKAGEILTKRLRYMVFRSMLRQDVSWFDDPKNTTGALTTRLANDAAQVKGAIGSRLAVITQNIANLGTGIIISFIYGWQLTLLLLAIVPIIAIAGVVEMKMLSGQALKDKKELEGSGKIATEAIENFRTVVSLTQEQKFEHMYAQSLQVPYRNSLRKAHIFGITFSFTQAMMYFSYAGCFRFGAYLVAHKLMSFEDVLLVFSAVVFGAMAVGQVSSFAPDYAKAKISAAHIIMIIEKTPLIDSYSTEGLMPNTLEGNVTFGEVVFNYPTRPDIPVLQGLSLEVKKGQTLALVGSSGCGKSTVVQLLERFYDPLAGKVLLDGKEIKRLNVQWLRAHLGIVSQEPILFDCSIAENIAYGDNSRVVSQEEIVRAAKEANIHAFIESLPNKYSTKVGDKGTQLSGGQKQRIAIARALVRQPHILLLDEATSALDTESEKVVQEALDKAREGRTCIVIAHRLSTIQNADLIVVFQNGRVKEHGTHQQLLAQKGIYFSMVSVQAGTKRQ

NET MDR1 ER (MDR1)	Kp uu [1]	SMILES	inclusion of intron 49 pseudoexon (HTT pre-mRNA)	HTT gene expression quantified using RNAseq (FPKM) (HTT pre-mRNA; 100 nM, SHSY5Y cells (HTT-C2), TK6 cells (HTT-C3))
>62.7	0.084	CC1(C)CC(Oc2ccc(-c3ccc(-c4ccnc(O)c4)cc3O)nn2)CC(C)(C)N1 [HTT-C1]	induced the inclusion of an Intron 49 pseudoexon	
11.8	0.242	CCN1CCC(c2cc(C)c3nc(-c4ccc5nn(C)cc5c4)cc(=O)n3c2)CC1 [HTT-D1]		
7.10	0.472	CCN1CCC(c2cc3c(F)cc(-c4cc(C)c5nc(C)cn5n4)cc3nn2)CC1 [HTT-D3]	induced the inclusion of an Intron 49 pseudoexon	
	0.179	CC1(C)CC(Oc2ccc(-c3ccc(-c4cn[nH]c4)cc3O)nn2)CC(C)(C)N1 [HTT-C2]	induced the inclusion of an Intron 49 pseudoexon	reduced HTT gene expression
